Laboratory results as given in US6376518B1, “Acyl derivatives of 4-demethylpenclomedine, use thereof and preparation thereof” (Southern Research Institute, priority 1999, dated 2002).
Marks after values point to notes of the source that are not given here.

Columns and labels:
human MX-1 mammary tumor [1] = assay: In vivo antitumor activity vs i.c.-implanted human MX-1 mammary tumor xenograft in athymic mice; conditions: ic MX-1
human MX-1 mammary tumor [2] = assay: In vivo antitumor activity vs s.c.-implanted human MX-1 mammary tumor xenograft in athymic mice; conditions: sc MX-1
[3] = oral (gavage) 135 mg/kg/dose, Days 13-17
[4] = optimal doses (LD10 or less), schedule QD1-5, administered LP.

Row | Compound | Median % ILS (dying mice only) (human MX-1 mammary tumor [1]; IP 135 mg/kg/dose, Days 1-5) | Median % ILS (dying mice only) (human MX-1 mammary tumor [1]; oral (gavage) 135 mg/kg/dose, Days 1-5) | Tumor-Free-Surv/Total (human MX-1 mammary tumor [2]; IP 135 mg/kg/dose, Days 11-15) | T-C (human MX-1 mammary tumor [2]; [3]) [days] | Tumor-Free-Surv/Total (human MX-1 mammary tumor [2]; [3]) | Median % ILS (dying mice only) (human MX-1 mammary tumor [1]; IP 90 mg/kg/dose, Days 1-5) | Tumor-Free-Surv/Total (human MX-1 mammary tumor [2]; IP 90 mg/kg/dose, Days 12-16) | activity against i.c.-implanted tumor in comparison to PEN and DM-PEN (in words) (human MX-1 mammary tumor [1]) | Tumor-Free-Surv/Total (human MX-1 mammary tumor [1]; IP 135 mg/kg/dose, Days 1-5) | Median % ILS (based on dying mice only) (human MX-1 mammary tumor [1]; [4]) | Survivors (human MX-1 mammary tumor [1]; [4])
1 | COc1nc(C(Cl)(Cl)Cl)c(Cl)c(OC(=O)C(C)(C)C)c1Cl [DM-P-PEN] | +64% | +20% | 5/5 | 0.9 | 0/5 | – | – | – | – | – | –
2 | COc1nc(C(Cl)(Cl)Cl)c(Cl)c(OC(=O)Cc2cccs2)c1Cl [DM-TA-PEN] | – | – | – | – | – | +75% | 3/5 | – | – | – | –
3 | COc1nc(C(Cl)(Cl)Cl)c(Cl)c(OC(=O)c2cccs2)c1Cl [DM-TC-PEN] | +100% | – | – | – | – | – | 4/5 | significant activity | 0/5 | 100^d % | 0/5
